Test: mn = molality of the nth substance listed, in mol/kg
Conditions: Liquid, isochoric method

CCCCCC[n+]1ccn(C)c1.O=S(=O)([N-]S(=O)(=O)C(F)(F)F)C(F)(F)F + O=C=O
Conditions	molar volume [m3/mol]
303.15 K, 228.1 kPa, m2 = 0.1549	0.0003078
303.15 K, 400.5 kPa, m2 = 0.277	0.0002962
303.15 K, 642.1 kPa, m2 = 0.4471	0.0002815
303.15 K, 786.2 kPa, m2 = 0.5432	0.0002738
303.15 K, 1036.5 kPa, m2 = 0.726	0.0002604
303.15 K, 1399.2 kPa, m2 = 0.9896	0.000243
303.15 K, 1689 kPa, m2 = 1.194	0.0002316
303.15 K, 1806.5 kPa, m2 = 1.29	0.0002265
303.15 K, 2065.3 kPa, m2 = 1.48	0.000217
303.15 K, 2289.9 kPa, m2 = 1.65	0.0002093
303.15 K, 2463.9 kPa, m2 = 1.782	0.0002037
303.15 K, 2819.3 kPa, m2 = 2.069	0.0001926
303.15 K, 3076.9 kPa, m2 = 2.267	0.0001856
303.15 K, 3555.5 kPa, m2 = 2.65	0.0001736
313.15 K, 337.1 kPa, m2 = 0.1947	0.0003066
313.15 K, 699.4 kPa, m2 = 0.4069	0.0002879
313.15 K, 1209.5 kPa, m2 = 0.7242	0.0002644
313.15 K, 1653.6 kPa, m2 = 1.006	0.0002471
313.15 K, 2111.8 kPa, m2 = 1.285	0.0002306
313.15 K, 2538.3 kPa, m2 = 1.615	0.0002177
313.15 K, 3188.6 kPa, m2 = 2.11	0.0001995
323.15 K, 465.7 kPa, m2 = 0.2272	0.0003063
323.15 K, 850.7 kPa, m2 = 0.4281	0.0002889
323.15 K, 1323.9 kPa, m2 = 0.6731	0.0002706
323.15 K, 1708.8 kPa, m2 = 0.8789	0.0002573
323.15 K, 2180.2 kPa, m2 = 1.152	0.0002419
323.15 K, 2704.6 kPa, m2 = 1.345	0.0002273
323.15 K, 3105.7 kPa, m2 = 1.546	0.0002172
333.15 K, 245.6 kPa, m2 = 0.1044	0.0003209
333.15 K, 519.1 kPa, m2 = 0.2209	0.0003096
333.15 K, 894.3 kPa, m2 = 0.3855	0.0002952
333.15 K, 1364.2 kPa, m2 = 0.6046	0.0002782
333.15 K, 1849.2 kPa, m2 = 0.8295	0.0002632
333.15 K, 2312.2 kPa, m2 = 1.051	0.0002501
333.15 K, 2799.2 kPa, m2 = 1.3	0.0002373
343.15 K, 474.1 kPa, m2 = 0.1783	0.0003165
343.15 K, 952.8 kPa, m2 = 0.3503	0.0003002
343.15 K, 1440.2 kPa, m2 = 0.553	0.0002849
343.15 K, 1937.6 kPa, m2 = 0.7557	0.0002707
343.15 K, 2453.7 kPa, m2 = 0.974	0.0002573
343.15 K, 2938.6 kPa, m2 = 1.181	0.0002461
343.15 K, 3446.9 kPa, m2 = 1.424	0.0002344
353.15 K, 502 kPa, m2 = 0.1643	0.0003208
353.15 K, 987.3 kPa, m2 = 0.3338	0.0003053
353.15 K, 1440.2 kPa, m2 = 0.4916	0.0002925
353.15 K, 1907.3 kPa, m2 = 0.6717	0.0002794
353.15 K, 2419.6 kPa, m2 = 0.8598	0.0002671
353.15 K, 2888.3 kPa, m2 = 1.037	0.0002567

CCCCn1cc[n+](C)c1.O=S(=O)([O-])C(F)(F)F [1-butyl-3-methylimidazolium trifluoromethanesulfonate] + O=C=O
Conditions	molar volume [m3/mol]
303.15 K, 233.6 kPa, m2 = 0.1586	0.0002163
303.15 K, 712 kPa, m2 = 0.5016	0.0002044
303.15 K, 1209.3 kPa, m2 = 0.8577	0.0001937
303.15 K, 1706.3 kPa, m2 = 1.236	0.0001836
303.15 K, 2180.4 kPa, m2 = 1.637	0.0001742
303.15 K, 2663.3 kPa, m2 = 2.038	0.000166
303.15 K, 3188 kPa, m2 = 2.481	0.000158
313.15 K, 244.1 kPa, m2 = 0.1345	0.0002188
313.15 K, 713.2 kPa, m2 = 0.418	0.0002088
313.15 K, 1212.5 kPa, m2 = 0.7087	0.0001997
313.15 K, 1722.9 kPa, m2 = 1.029	0.0001907
313.15 K, 2194.4 kPa, m2 = 1.329	0.0001831
313.15 K, 2669.6 kPa, m2 = 1.632	0.0001761
313.15 K, 3135.3 kPa, m2 = 1.944	0.0001696
323.15 K, 239.4 kPa, m2 = 0.1102	0.0002213
323.15 K, 707.7 kPa, m2 = 0.3453	0.0002129
323.15 K, 1223.5 kPa, m2 = 0.5993	0.0002047
323.15 K, 1721.4 kPa, m2 = 0.8739	0.0001966
323.15 K, 2204.9 kPa, m2 = 1.131	0.0001897
323.15 K, 2697.2 kPa, m2 = 1.397	0.0001832
323.15 K, 3198.1 kPa, m2 = 1.707	0.0001762
333.15 K, 239.9 kPa, m2 = 0.0968	0.0002234
333.15 K, 756.2 kPa, m2 = 0.3124	0.0002157
333.15 K, 1259.5 kPa, m2 = 0.5379	0.0002083
333.15 K, 1767.4 kPa, m2 = 0.7626	0.0002015
333.15 K, 2242.8 kPa, m2 = 0.9814	0.0001953
333.15 K, 2734.2 kPa, m2 = 1.226	0.000189
333.15 K, 3236.7 kPa, m2 = 1.474	0.0001831
343.15 K, 250.3 kPa, m2 = 0.0877	0.0002253
343.15 K, 746.9 kPa, m2 = 0.2655	0.0002189
343.15 K, 1255 kPa, m2 = 0.4535	0.0002126
343.15 K, 1759 kPa, m2 = 0.6555	0.0002063
343.15 K, 2265.7 kPa, m2 = 0.8561	0.0002004
343.15 K, 2732.5 kPa, m2 = 1.072	0.0001946
343.15 K, 3216 kPa, m2 = 1.276	0.0001895

S [hydrogen sulfide] + CCCCn1cc[n+](C)c1.O=S(=O)([O-])C(F)(F)F
Conditions	molar volume [m3/mol]
303.15 K, 172.6 kPa, m1 = 0.5717	0.0001972
303.15 K, 339.1 kPa, m1 = 1.141	0.000178
303.15 K, 491.8 kPa, m1 = 1.715	0.0001633
303.15 K, 691.5 kPa, m1 = 2.517	0.0001472
303.15 K, 857 kPa, m1 = 3.192	0.0001371
303.15 K, 1016.5 kPa, m1 = 3.857	0.0001282
303.15 K, 1178.1 kPa, m1 = 4.512	0.0001212
303.15 K, 1368.5 kPa, m1 = 5.449	0.0001129
303.15 K, 1494.2 kPa, m1 = 6.127	0.000108
313.15 K, 169.3 kPa, m1 = 0.4237	0.0002046
313.15 K, 392.6 kPa, m1 = 1.017	0.0001836
313.15 K, 605 kPa, m1 = 1.634	0.0001669
313.15 K, 813.7 kPa, m1 = 2.295	0.0001529
313.15 K, 1021.5 kPa, m1 = 3.03	0.0001406
313.15 K, 1244.6 kPa, m1 = 3.892	0.0001294
313.15 K, 1455.3 kPa, m1 = 4.807	0.00012
313.15 K, 1592.1 kPa, m1 = 5.49	0.0001142
323.15 K, 188 kPa, m1 = 0.3783	0.000208
323.15 K, 418.4 kPa, m1 = 0.874	0.0001897
323.15 K, 647.6 kPa, m1 = 1.409	0.0001741
323.15 K, 1041.4 kPa, m1 = 2.42	0.0001522
323.15 K, 1294 kPa, m1 = 3.138	0.0001407
323.15 K, 1501.2 kPa, m1 = 3.819	0.0001319
323.15 K, 1614.4 kPa, m1 = 4.192	0.0001272
333.15 K, 196.6 kPa, m1 = 0.3257	0.0002118
333.15 K, 459.2 kPa, m1 = 0.7804	0.0001944
333.15 K, 705.7 kPa, m1 = 1.237	0.0001803
333.15 K, 907.8 kPa, m1 = 1.635	0.00017
333.15 K, 1176.8 kPa, m1 = 2.188	0.0001581
333.15 K, 1400.8 kPa, m1 = 2.685	0.0001492
333.15 K, 1570.7 kPa, m1 = 3.114	0.0001426
343.15 K, 207.6 kPa, m1 = 0.279	0.0002154
343.15 K, 456.9 kPa, m1 = 0.6403	0.000201
343.15 K, 706.7 kPa, m1 = 1.021	0.0001882
343.15 K, 923.5 kPa, m1 = 1.369	0.0001783
343.15 K, 1176.5 kPa, m1 = 1.798	0.0001679
343.15 K, 1391.1 kPa, m1 = 2.179	0.0001599
343.15 K, 1632 kPa, m1 = 2.646	0.0001515

Source: the NIST ThermoML archive (doi:10.1016/j.fluid.2017.09.003)
